# From patent US12534487B2, “Compounds for use as iron(III) MRI contrast agents” (The Research Foundation for The State University of New York, priority 2017, dated 2026)
# Assays:
# [1] = Phantom (in vitro) MR imaging at 4.7 T: T1 and T2 relaxivity; type: physicochemical; settings: neutral pH, Hepes buffer, 37° C.
# Description: Eq. 2 predicts that greater numbers of bound water molecules and rapid ligand exchange rate constants (short lifetimes for bound water (Tm)) are advantageous. […] There is an analogous relationship for second-sphere waters although the number and residence time is not well defined. The R1 and R2 relaxivity (from T1 and T2 relaxation rate constants at 4.7 T at 37° C. is shown for several complexes in FIG. 13 and FIG. 14. Data on a 3 Tesla MRI scanner are shown in FIG. 21. Table 1 summarizes R1 and R2 relaxivity data for several Fe(III) complexes.
# Preparation of Samples for Phantom MR Imaging: Samples for phantom imaging experiments contained 50-500 μM complex, 20 mM HEPES and 100 mM NaCl. […]
# Phantom (in vitro) imaging at 4.7 T. MRI acquisitions were performed using a General Electric 4.7T/33 cm horizontal bore magnet (GE NMR instruments, Fremont, CA) incorporating AVANCE digital electronics (Bruker BioSpec platform with ParaVision v 3.0.2 acquisition software, Bruker Medical, Billerica, MA). […] Signal intensities at each repetition time were sampled by taking the mean intensity within regions of interest (ROI's) using commercially available image processing software (Analyze 7.0, AnalyzeDirect, Overland, KS), and R1 and SMAX were calculated by nonlinear fitting of the equation using Matlab's Curve Fitting Toolbox (Matlab 7.0, MathWorks Inc., Natick, MA). […]
# brain tumors = experiment: MRI scans of mice with brain tumors; type: in vivo, mice (C57BL/6NCr); settings: C57BL/6NCr mice, 0.05 or 0.1 mmol/kg
# Description: Mice were dosed with Fe(TOB) at 0.05 mmol/kg Fe(TOB) complex or 0.1 mmol/kg Fe(TOB) complex.
# mice = experiment: In vivo MRI contrast enhancement in mice at 4.7 T; set-up: species or system mouse
# Description: The necessary solubility of the complexes depends on their effectiveness in producing contrast. For Fe(III) T1 contrast agents that have good relaxivity, the complexes need 100 μM-2 mM solubility. However, other additives such as human serum albumin (has) or meglumine may be used to increase solubility and/or increase relaxivity. Solubility is generally measured in aqueous solution at near neutral pH (e.g., 6.5 to 7.5, including all 0.1 pH values and ranges therebetween) in 100 mM NaCl with 25 mM carbonate and 0.4 mM phosphate. The dose of the composition to be used will necessarily be dependent upon the needs of the individual to whom the composition of the disclosure is to be administered. These factors include, but are not necessarily limited to the weight, age, sex, and medical history of the individual. Shown in FIGS. 15, 16, 17, 18, 19, 20 are data from in vivo MRI studies done in mice. The contrast agent, Fe(TOB) was injected at 0.20 mL of 6.3 mM Fe-TOB-HSA (10.5 mg of HAS or two equivalents of megluamine). […] In vivo imaging in mice. Efficacy of the Fe(III) complexes for in vivo contrast enhancement was studied on at 4.7 T Bruker preclinical MRI in a mouse model (BABC/cJ, Jackson Laboratory). Sealed phantoms were included for imaging sessions for signal normalization. Prior to administration of contrast agents, scans were acquired to serve as baseline values of enhancement. […] Compounds were injected intravenously via tail vein at a dose of 50 μmol [Fe]/kg and MR data were acquired continuously for up to 1 hour after injection to study distribution and clearance kinetics. Thus, 0.2 mL of a 6 mM stock solution was injected into the mouse or 0.05 mmol/Kg. Additional scans were acquired at 3 and 6 hours post-injection to characterize slower clearance rates by the biliary system. The FDA-approved […] contrast agent gadopentetate dimeglumine (Gd-DTPA, Magnevist®) was injected into a separate cohort of mice at 50 μmol [Gd]/kg for comparison. For SPGR datasets, signal intensities were normalized to the phantoms and signal increase for each organ was measured, as well as an increase in contrast-to-noise ratios as compared to back muscle. Fe(III) concentrations were estimated by calculating the increase in T1 rates and dividing by the compound's relaxivity value as determined in vitro.
# [2] = Benzoate oxidation with peroxide and ascorbate (ROS production); settings: 50 μM complex, 50 μM H2O2, 50 μM ascorbate, pH 7.2; [Fe(EDTA)]− oxidation set at 100%
# Description: Benzoate oxidation with 50 μM complex, 50 μM H2O2 and 50 μM ascorbate at pH 7.2. [Fe(EDTA)]^− oxidation is set at 100%.
# It is desirable that the Fe(III) complex remain in the trivalent oxidation state and not be reduced by, for example, peroxide, superoxide, ascorbate, or by glutathione at concentrations present in the extracellular medium of cells such as, for example, mammalian cells (e.g., human cells). Normally, a redox potential more negative than zero mV (<0 mV) versus NHE is sufficient. If the complex were to be reduced to Fe(II) and the Fe(II) complex and the complex has a positive redox potential versus NHE, reactive oxygen species may be produced, for example, as shown in FIG. 8. For example, [Fe(EDTA)]—has a redox potential of approximately 300 mV and produces ROS as shown by the assay in FIG. 11.
# [3] = stated in text without conditions; cited from earlier work
# [4] = 50 μmol/kg i.v., 4.7 T, compared with the other agents
structure (smiles),measurement,setting,value
CC([O-])CN1CCN(Cc2ccccc2)CCN(CC(C)[O-])CC1.[Fe+3] (stereo not drawn) [Fe(TOB)],R1 (T1 relaxivity),"[1]; 4.7 Tesla MRI scanner, complex alone",2.5 mM⁻¹ s⁻¹
same,R1 with HSA,"[1]; 4.7 Tesla, with human serum albumin",3.4 mM⁻¹ s⁻¹
same,Contrast of brain tumors,brain tumors,produces contrast of brain tumors in mice
same,T1 contrast in kidneys,mice; [4],greater contrast than Gd(DTPA) in kidney and liver
same,T1 contrast in liver,mice; [4],greater contrast than Gd(DTPA) in kidney and liver
same,Elimination by the biliary system (gall bladder enhancement),"mice; 50 μmol/kg, 30′ and 4 h post-injection",strong enhancement of the gall bladder
same,Removal from the blood,"mice; 50 μmol/kg, vs. Gd-DTPA",faster removal from the blood
same,Uptake in kidneys and liver,"mice; 50 μmol/kg, vs. Gd-DTPA",Greater uptake
same,Tissue with highest signal (T1 relaxivity differences in tissue),"mice; 0.20 mL of 6.3 mM Fe-TOB-HSA, 30 minute period",highest signal is observed in the kidney cortex
"CNC[C@H](O)[C@@H](O)[C@H](O)[C@H](O)CO.CNC[C@H](O)[C@@H](O)[C@H](O)[C@H](O)CO.O=C([O-])CN(CCN(CC(=O)[O-])CC(=O)O)CCN(CC(=O)[O-])CC(=O)O.[Gd+3] [Gd(DTPA), gadopentetate dimeglumine, reference compound]",T1 contrast in blood,mice; [4],produces larger contrast in blood
O=C([O-])CN(CCN(CC(=O)[O-])CC(=O)[O-])CC(=O)[O-].[Fe+3] [[Fe(EDTA)]^−],Benzoate oxidation / ROS production,[2],produces ROS
same,redox potential,[3],approximately 300 mV
